Publication PMC6271395, “Synthesis and Biological Activities of Some New (N^α-Dinicotinoyl)-bis-L-Leucyl Linear and Macrocyclic Peptides” (Molecules, 2014)

Experiments:
[1] = test system: Bacillus subtilis; assay: Agar diffusion antimicrobial test, Bacillus subtilis; format: cell-based; details: Gram+ve, modified Kirby–Bauer disk diffusion, 10 µg/mL
Experimental: (§1) The newly synthesized compounds 3–12 were tested for their preliminary antimicrobial activity against different microorganisms representing Gram-positive (Bacillus subtilis, Bacillus aureus and Staphylococcus aureus), Gram-negative bacteria (Escherichia coli), yeast (Candida albican) and fungi (Aspergillus niger).
(§2) The antimicrobial activities of the synthesized compounds were determined by the agar diffusion method as recommended by the national committee for clinical laboratory standards (NCCLS). The concentrations of the tested compounds (10 µg/mL) were used according to modified Kirby–Bauer’s disk diffusion method. The degree of inhibition is measured in comparison with that of chloramphinicol and fusidic acid taken as standards.

[2] = test system: plasma PGE2; assay: Inhibition of plasma PGE2 (EIA) in carrageenan-challenged rats; format: in vivo, rat; details: rats n = 8, blood four hours after drug administration, PGE2 EIA kit
Experimental: (§3) For the determination of the antiphlogistic potency of the synthesized compounds, two standard tests were realized at a dose level 2.5 and 5 mg/kg body weight of the rats, namely the protection against carrageenan-induced edema according to Winter et al. and the inhibition of plasma PGE2. The latter is known as a good confirming indicator for carrageenan-induced rat paw edema. […] For these compounds, a similar activity profile was realized for the inhibition of plasma PGE2.
(§4) Groups of adult male albino rats (150–180 g), each of eight animals were orally dosed with tested compounds at a dose level of 2.5–5 mg/kg one hour before carrageenan challenge. Foot paw edema was induced by subplantar injection of 0.05 cm^3 of a 1% suspension of carrageenan in saline into the plantar tissue of one hind paw. An equal volume of saline was injected to the other hand paw and served as control. Four hours after drug administration the animals were decapitated, blood was collected, and the paws were rapidly excised. The average weight of edema was examined for the treated as well as the control group and the percentage inhibition of weight of edema was also evaluated. Diclofenac potassium (5 mg/kg) was employed as standard reference against which the tested compounds were compared (Table 2).
Heparinized blood samples were collected from rats (n = 8), plasma was separated by centrifugation at 12,000 g for 2 min at […], immediately frozen, and stored at […] until use. The design correlate EIA prostaglandin E2 (PGE2) kit (Aldrich, Steinheim, Germany) is a competitive immuno assay for the quantitative determination of PGE2 in biological fluids. The kit uses a monoclonal antibody to PGE2 to bind, in a competitive manner, the PGE2 in the sample after a simultaneous incubation at room temperature. The excess reagents were washed away and the substrate was added, after a short incubation time the enzyme reaction was stopped, and the yellow color generated was read on a microplate reader DYNATech, MR 5000 at 405 nm (Dynatech Industries Inc., McLean, VA, USA). The intensity of the bound yellow color is inversely proportional to the concentration of PGE2 in either standard or samples.

[3] = test system: Escherichia coli; assay: Agar diffusion antimicrobial test, Escherichia coli; format: cell-based; details: Gram−ve, modified Kirby–Bauer disk diffusion, 10 µg/mL
Experimental: as §1, §2

[4] = test system: Bacillus aureus; assay: Agar diffusion antimicrobial test, Bacillus aureus; format: cell-based; details: Gram+ve, modified Kirby–Bauer disk diffusion, 10 µg/mL
Experimental: as §1, §2

[5] = test system: carrageenan-induced edema; assay: Carrageenan-induced edema (rat paw test); format: in vivo; details: one hour before carrageenan, male albino rats, eight animals per group, paws excised four hours after drug administration
Experimental: as §3, §4

[6] = test system: Aspergillus niger; assay: Agar diffusion antimicrobial test, Aspergillus niger; format: cell-based; details: Fungi, modified Kirby–Bauer disk diffusion, 10 µg/mL
Experimental: as §1, §2

[7] = test system: Staphylococcus aureus; assay: Agar diffusion antimicrobial test, Staphylococcus aureus; format: cell-based; details: Gram+ve, modified Kirby–Bauer disk diffusion, 10 µg/mL
Experimental: as §1, §2

[8] = test system: Candida albicans; assay: Agar diffusion antimicrobial test, Candida albicans; format: cell-based; details: Yeast, modified Kirby–Bauer disk diffusion, 10 µg/mL
Experimental: as §1, §2

COC(=O)[C@H](CC(C)C)NC(=O)c1cncc(C(=O)N[C@@H](CC(C)C)C(=O)OC)c1 [Compound 3, 3,5-Bis-(Methyl L-Leucenylcarbonyl)pyridine carboxylate] was tested, and the “Inhibition Zome, Bacillus subtilis” value [1] was 1.46 cm, the “% Inhibition of Plasma PGE2” value ([2]; dose 2.5 mg/kg oral) was 59.45 ± 0.050% and the “% Inhibition of Plasma PGE2” value ([2]; dose 5.0 mg/kg oral) was 81.10 ± 0.056%. The “Inhibition Zome, Escherichia coli” value [3] was 0.62 cm, the “Inhibition Zome, Bacillus aureus” value [4] was 1.65 cm and the “% Protection against Edema” value ([5]; dose 2.5 mg/kg oral) was 86.16 ± 0.052%. The “% Protection against Edema” value ([5]; dose 5.0 mg/kg oral) was 98.18 ± 0.053%, the “Inhibition Zome, Aspergillus niger” value [6] was 1.78 cm and the “Inhibition Zome, Staphylococcus aureus” value [7] was 1.76 cm.
For CC(C)C[C@H](NC(=O)c1cncc(C(=O)N[C@@H](CC(C)C)C(=O)NN)c1)C(=O)NN [Compound 4, N^2,N^2′-(Pyridine-3,5-dicarbonyl)-di-L-leucyl hydrazide], the “Inhibition Zome, Bacillus subtilis” value [1] was 1.85 cm, the “% Inhibition of Plasma PGE2” value ([2]; dose 2.5 mg/kg oral) was 75.66 ± 0.040% and the “% Inhibition of Plasma PGE2” value ([2]; dose 5.0 mg/kg oral) was 80.01 ± 0.058%. For the same molecule, the “Inhibition Zome, Escherichia coli” value [3] was 0.80 cm, the “Inhibition Zome, Candida albicans” value [8] was 0.92 cm and the “Inhibition Zome, Bacillus aureus” value [4] was 1.92 cm. The “% Protection against Edema” value ([5]; dose 2.5 mg/kg oral) was 93.45 ± 0.074%, the “% Protection against Edema” value ([5]; dose 5.0 mg/kg oral) was 98.56 ± 0.060% and the “Inhibition Zome, Aspergillus niger” value [6] was 1.56 cm. For the same molecule, the “Inhibition Zome, Staphylococcus aureus” value [7] was 1.80 cm.
In the case of CC(C)C[C@H](NC(=O)c1cncc(C(=O)N[C@@H](CC(C)C)C(=O)O)c1)C(=O)O [Compound 5, N,N′-Bis(1-Carboxy-2-L-leucyl)-3,5-(diaminocarbonyl)pyridine], the “Inhibition Zome, Bacillus subtilis” value [1] is reported as 1.68 cm, the “% Inhibition of Plasma PGE2” value ([2]; dose 2.5 mg/kg oral) is reported as 61.16 ± 0.041% and the “% Inhibition of Plasma PGE2” value ([2]; dose 5.0 mg/kg oral) is reported as 77.14 ± 0.036%. The “Inhibition Zome, Escherichia coli” value [3] was 0.64 cm, the “Inhibition Zome, Bacillus aureus” value [4] was 1.14 cm and the “% Protection against Edema” value ([5]; dose 2.5 mg/kg oral) was 85.14 ± 0.056%. For the same molecule, the “% Protection against Edema” value ([5]; dose 5.0 mg/kg oral) was 96.18 ± 0.067%, the “Inhibition Zome, Aspergillus niger” value [6] was 1.72 cm and the “Inhibition Zome, Staphylococcus aureus” value [7] was 1.76 cm.
COC(=O)[C@@H]1CCCCNC(=O)[C@H](CC(C)C)NC(=O)c2cncc(c2)C(=O)N[C@@H](CC(C)C)C(=O)N1 [Compound 6, Cyclo-(Na-dinicotinoyl)-bis-(L-leucyl)-L-lysine methyl ester] was tested, and the “Inhibition Zome, Bacillus subtilis” value [1] was 1.82 cm, the “% Inhibition of Plasma PGE2” value ([2]; dose 2.5 mg/kg oral) was 84.18 ± 0.052% and the “% Inhibition of Plasma PGE2” value ([2]; dose 5.0 mg/kg oral) was 86.01 ± 0.030%. For the same molecule, the “Inhibition Zome, Escherichia coli” value [3] was 0.65 cm, the “Inhibition Zome, Bacillus aureus” value [4] was 1.50 cm and the “% Protection against Edema” value ([5]; dose 2.5 mg/kg oral) was 92.14 ± 0.076%. For the same molecule, the “% Protection against Edema” value ([5]; dose 5.0 mg/kg oral) was 99.08 ± 0.062%, the “Inhibition Zome, Aspergillus niger” value [6] was 1.75 cm and the “Inhibition Zome, Staphylococcus aureus” value [7] was 1.54 cm.
With CC(C)C[C@H](NC(=O)c1cncc(C(=O)N[C@@H](CC(C)C)C(=O)N/N=C/c2ccccc2)c1)C(=O)N/N=C/c1ccccc1 [Compound 10a] the “Inhibition Zome, Bacillus subtilis” value [1] was 1.56 cm, the “% Inhibition of Plasma PGE2” value ([2]; dose 2.5 mg/kg oral) was 62.12 ± 0.051% and the “% Inhibition of Plasma PGE2” value ([2]; dose 5.0 mg/kg oral) was 83.01 ± 0.049%. For the same molecule, the “Inhibition Zome, Escherichia coli” value [3] was 0.66 cm, the “Inhibition Zome, Bacillus aureus” value [4] was 1.45 cm and the “% Protection against Edema” value ([5]; dose 2.5 mg/kg oral) was 90.32 ± 0.035%. For the same molecule, the “% Protection against Edema” value ([5]; dose 5.0 mg/kg oral) was 99.10 ± 0.036%, the “Inhibition Zome, Aspergillus niger” value [6] was 1.68 cm and the “Inhibition Zome, Staphylococcus aureus” value [7] was 1.56 cm.
In the case of CC(C)C[C@@H]1NC(=O)c2cncc(c2)C(=O)N[C@@H](CC(C)C)C(=O)NN2C(=O)c3ccc4c5c(ccc(c35)C2=O)C(=O)N(NC(=O)[C@H](CC(C)C)NC(=O)c2cncc(c2)C(=O)N[C@@H](CC(C)C)C(=O)NN2C(=O)c3ccc5c6c(ccc(c36)C2=O)C(=O)N(NC1=O)C5=O)C4=O [Compound 12], the “Inhibition Zome, Bacillus subtilis” value [1] is reported as 1.65 cm, the “% Inhibition of Plasma PGE2” value ([2]; dose 2.5 mg/kg oral) is reported as 63.16 ± 0.036% and the “% Inhibition of Plasma PGE2” value ([2]; dose 5.0 mg/kg oral) is reported as 86.18 ± 0.071%. For the same molecule, the “Inhibition Zome, Escherichia coli” value [3] was 0.64 cm, the “Inhibition Zome, Bacillus aureus” value [4] was 1.83 cm and the “% Protection against Edema” value ([5]; dose 2.5 mg/kg oral) was 90.48 ± 0.090%. For the same molecule, the “% Protection against Edema” value ([5]; dose 5.0 mg/kg oral) was 99.36 ± 0.080%, the “Inhibition Zome, Aspergillus niger” value [6] was 1.58 cm and the “Inhibition Zome, Staphylococcus aureus” value [7] was 1.65 cm.
O=C([O-])Cc1ccccc1Nc1c(Cl)cccc1Cl.[K+] [Diclofenac Potassium, reference compound] was tested, and the “% Inhibition of Plasma PGE2” value ([2]; dose 2.5 mg/kg oral) was 54.00 ± 0.041%, the “% Inhibition of Plasma PGE2” value ([2]; dose 5.0 mg/kg oral) was 70.00 ± 0.051% and the “% Protection against Edema” value ([5]; dose 2.5 mg/kg oral) was 70.14 ± 0.064%. The “% Protection against Edema” value ([5]; dose 5.0 mg/kg oral) was 75.23 ± 0.083%.
CC(=O)O[C@H]1C[C@@]2(C)[C@@H](C[C@@H](O)[C@H]3[C@@]4(C)CC[C@@H](O)[C@@H](C)[C@@H]4CC[C@@]32C)/C1=C(\CCC=C(C)C)C(=O)O [Fusidic Acid, reference compound] was tested, and the “Inhibition Zome, Candida albicans” value [8] was 1.9 cm and the “Inhibition Zome, Aspergillus niger” value [6] was 1.9 cm.
